Measured values taken from patent US20110178015A1, “METHODS OF TREATMENT USING BIASED LIGANDS FOR RECEPTORS SUCH AS THE PTH RECEPTOR” (priority 2007, published 2011).
Entries after “also recorded” stand apart in the source; their conditions may differ.

How the values were obtained:
[1] = test system: WT and β-arrestin 2−/− mice; test: qCT of the midfemoral shaft (cortical bone); assay type: in vivo; conditions: for femoral periosteal circumference / midshaft cortical thickness: WT mice; for femoral periosteal circumference / midshaft cortical thickness / cortical thickness / periosteal circumference: 8 wks; for endosteal bone surfaces: WT or β-arrestin−/− mice, data not shown; for cortical thickness / periosteal circumference: β-arrestin 2−/− mice
Excerpt: Finally, the effects of PTH(1-34) and PTH-βarr on cortical bone were examined by qCT of the midfemoral shaft (FIGS. 3D and E). […] However the β-arrestin 2−/− mice had greater midshaft cortical thickness than vehicle treated WT mice. […] The biased agonist, PTH-βarr had no effect on these cortical indices in WT mice.

[2] = test system: WT and β-arrestin 2−/− mice; test: 24 hour urine deoxypyridinoline (DPD), marker of bone resorption; assay type: in vivo; conditions: 4 weeks of treatment
Experimental: FIG. 5. PTH-βarr increases serum osteocalcin and has no effect on urine Deoxypyridinoline (DPD) excretion. (a) Serum osteocalcin, a biochemical marker of bone formation was measured in WT and β-arrestin 2−/− mice after 4 weeks of treatment with vehicle, PTH (1-34) (PTH) or PTH-βarr. […] There was no increase in serum osteocalcin in the arrestin 2−/− mice treated with PTH-βarr compared to placebo. […] (b) 24 hour urine DPD, a marker of bone degradation and bone resorption, was also measured in WT and β-arrestin 2−/− mice after 4 weeks of treatment with vehicle, PTH or PTH-βarr. […] Data represent the mean±SEM of at least 7 independent mouse measurements. (***, P<0.001; *, P<0.05; compared with vehicle treated WT mice; †††, P<0.001; ††, P<0.01 compared with vehicle treated β-arrestin 2−/− mice).
265. 24 hour urine deoxypyridinoline (DPD), a marker of bone degradation and bone resorption, was also measured. […] The increase in urine DPD excretion in the PTH(1-34) treated β-arrestin 2−/− mice compared to WT further supports the hypothesis that osteoblast-osteoclast coupling is meditated primarily through G protein dependent mechanisms that are disinhibited in the absence of β-arrestin 2.

[3] = test system: WT and β-arrestin 2−/− mice; test: Bone mineral density after intermittent daily IP treatment; assay type: in vivo; conditions: once daily IP 40 mg/kg/day, 4 and 8 weeks
Experimental: FIG. 3. PTH-βarr increases lumbar spine bone mineral density. The effect of daily administration of vehicle, PTH (1-34)(PTH) or PTH-βarr on bone mineral density after 4 and 8 weeks was measured in the (a) lumbar spine of WT mice (b) lumbar spine of β-arrestin 2−/− (c) femur shaft of WT mice and (d) femoral shaft of β-arrestin 2−/− mice. […] Data represents the mean±SEM of at least 7 independent mouse measurements. (*, P<0.05; **, P<0.01 compared with vehicle treated controls)
β-arrestin 2−/− mice are fertile and present no gross phenotypic abnormalities. Further, no gross alterations in skeletal morphology or size were detected by x-ray analysis of β-arrestin 2−/− mice compared to 6 WT mice (data not shown). To examine the contribution of β-arrestin mediated signaling to regulation of the anabolic effects of PTH on bone, 9 week old WT and β-arrestin 2−/− mice were treated with intermittent (i.e. once daily) IP injection of PTH (1-34) (40 mg/kg/day), the β-arrestin biased agonist PTH-βarr (40 mg/kg/day). Its usually mg/kg/day) or vehicle. Bone mineral density (BMD) measurements were obtained at baseline and serially over 4 to 8 wks (FIG. 2). […] There were no significant differences in whole body BMD or femoral BMD between the WT or β-arrestin 2−/− mice. […] Consistent with earlier reports, these increases in BMD were absent in the PTH(1-34) treated β-arrestin 2−/− mice (FIGS. 2B and D). […] The decrease in BMD in β-arrestin 2−/− mice treated with PTH-βarr, are likely due to the inhibition of G protein mediated signaling as well as the absence of β-arrestin 2 mediated signaling.

endogenous PTH1R [4] = target: T1, endogenous PTH1R (Mus musculus, UniProt P41593); test: cAMP accumulation in primary osteoblasts (POB); assay type: cell-based, mice; conditions: 100 nM PTH(1-34) or 1 μM PTH-βarr, 5 min
T1 construct: stimulation of endogenous PTH1R in primary murine osteoblasts (POB); endogenous in cells; host or cells: primary osteoblasts (POB) from WT and β-arrestin 2−/− C57BL/6 mice
T1 sequence (P41593 27-591): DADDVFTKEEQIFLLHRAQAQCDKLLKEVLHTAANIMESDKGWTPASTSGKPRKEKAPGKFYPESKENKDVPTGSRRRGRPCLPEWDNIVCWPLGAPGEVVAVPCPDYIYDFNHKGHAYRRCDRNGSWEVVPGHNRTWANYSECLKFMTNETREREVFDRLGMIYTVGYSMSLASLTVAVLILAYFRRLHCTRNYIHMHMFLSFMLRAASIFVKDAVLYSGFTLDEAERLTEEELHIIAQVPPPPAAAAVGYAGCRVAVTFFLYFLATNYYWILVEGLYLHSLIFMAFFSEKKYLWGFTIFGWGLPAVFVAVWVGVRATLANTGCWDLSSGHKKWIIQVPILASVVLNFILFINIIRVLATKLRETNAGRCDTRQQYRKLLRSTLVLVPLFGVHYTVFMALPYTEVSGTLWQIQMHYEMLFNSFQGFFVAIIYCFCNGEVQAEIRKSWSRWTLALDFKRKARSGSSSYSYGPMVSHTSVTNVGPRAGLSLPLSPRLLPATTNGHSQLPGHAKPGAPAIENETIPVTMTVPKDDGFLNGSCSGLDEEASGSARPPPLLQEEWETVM
Experimental: FIG. 1. […] Cells were treated with 100 nM PTH(1-34) (PTH) or 1 μM PTH-βarr. […] Data correspond to the mean±SEM from four independent experiments. (***, P<0.001 compared with the nonstimulated WT POB; †††, P<0.001; ††, P<0.01 compared with the non-stimulated β-arrestin 2−/− POBs).
The increased basal cAMP in the β-arrestin cells is likely due to the loss of β-arrestin mediated desensitization of PTH1R and/or other Gs coupled 7TMRs.
There was no significant difference in cAMP generated between WT and β-arrestin 2−/−POB at 5 min.

endogenous PTH1R [5] = target: T1, endogenous PTH1R; test: Gq/11 PI hydrolysis in POB cultures; assay type: cell-based, mice; conditions: data not shown
PTH1 receptor = conditions: cited from earlier work
[6] = Gardella 1996, Sneddon 2004, Bisello 2002

Row | Substance | femoral periosteal circumference [1] | midshaft cortical thickness [1] | endosteal bone surfaces [1] | cortical thickness [1] | periosteal circumference [1] | 24 hour urine DPD vs vehicle ([2]; WT mice) | 24 hour urine DPD vs vehicle ([2]; β-arrestin 2−/− mice) | femoral BMD vs vehicle ([3]; WT mice) | femoral BMD vs vehicle ([3]; β-arrestin 2−/− mice) | cAMP accumulation (endogenous PTH1R [4]; WT POB) | cAMP accumulation (endogenous PTH1R [4]; β-arrestin 2−/− POB) | Gq/11 PI hydrolysis (endogenous PTH1R [5]) | further results
1 | (D-Trp12, Tyr34)-PTH(7-34) [PTH-βarr] | no effect | no effect | no significant effects | significantly decreased | significantly decreased | no significant effect | no significant effect | did not significantly affect | decreases | unable to stimulate cAMP; also recorded: did not increase cAMP | decreases basal cAMP levels; also recorded: significantly decreased | did not activate | lumbar spine BMD vs vehicle ([3]; WT mice, 40 mg/kg/day): significant increases; PTH1 receptor-Gs coupling / cAMP production (PTH1 receptor; [6]): inverse agonist; arrestin-dependent sequestration / β-arrestin recruitment (PTH1 receptor; [6]): promoting arrestin-dependent sequestration; β-arrestin-dependent ERK1/2 activation (PTH1 receptor; in vitro, Gesty-Palmer 2006): elicit β-arrestin-dependent ERK1/2 activation
2 | PTH(1-34) [reference compound] | increased | increased | no significant effects | no significant effect | no significant effect | significantly increased | significantly increased | marked increases | absent | robust increases | robust increases | did not activate | 24 hour urine DPD vs vehicle ([2]; β-arrestin 2−/− mice, listed as PTH): increase; lumbar spine BMD vs vehicle ([3]; WT mice): marked increases; lumbar spine BMD vs vehicle ([3]; β-arrestin 2−/− mice): absent; cAMP accumulation (endogenous PTH1R [4]; WT POB, listed as PTH): robust increase; cAMP accumulation (endogenous PTH1R [4]; β-arrestin 2−/− POB, listed as PTH): robust increase
